Measured values from patent US9745339B2 (GRAFFINITY PHARMACEUTICALS GMBH, priority 2012, dated 2017).

Legend:
Palivizumab = assay: Microtiter plate chromatography of resins: binding and elution of Palivizumab; conditions: fraction of injected protein bound; 0.5 mg/ml IgG in PBS pH 7.3
Protocol: (§1) Resins were assessed in packed mode by microtiter plate chromatography. For each column, approximately 30 μl of resin were transferred to a 384-well filter plate and sealed with appropriate top fits. Columns with rProtein A SEPHAROSE 4 FF and MABSORBENT A2P HF were included as controls.
(§2) Either 3.3 cv of whole IgGs dissolved at 0.5 mg ml^−1 in PBS or undiluted host cell proteins (HCP) were injected onto columns.
(§3) Unbound protein was washed from columns with 5 cv of PBS prior to elution with 5 cv of glycine buffer at pH 2.5. […] During injection of samples, speed was reduced to 10 g and centrifugation time increased to 5-10 min. Effluent fractions were collected in 384-well plates and concentrations of protein were analyzed by Bradford assay. Protein masses mi, mft and me (see below) were calculated as the product of fraction volume and measured protein concentration.
(§4) The fraction of bound protein was calculated as the difference between the total mass of protein injected mi and the mass of protein detected in the flowthrough mft, divided by the total mass of protein injected.
(§5) The yield of protein was calculated as the mass of protein eluted me, divided by the mass of protein injected mi.
(§6) The fraction of bound protein and the yield of protein were calculated for each resin based on data for whole IgG-antibodies. In the case of host cell proteins, only the fraction of bound protein is given. Selectivity of resins was calculated from data for Bevacizumab whole IgG and host cell proteins. Due to limited experimental precision, selectivity was truncated for values beyond 10.

Cetuximab = assay: Microtiter plate chromatography of resins: binding and elution of Cetuximab; conditions: fraction of injected protein bound; 0.5 mg/ml IgG in PBS pH 7.3
Protocol: as §1, §2, §3, §4, §5, §6

[1] = system: poly-IgG from human serum (h-poly-IgG); assay: Microtiter plate chromatography of resins: binding and elution of human poly-IgG; conditions: fraction of injected protein bound; 0.5 mg/ml IgG in PBS pH 7.3
Protocol: as §1, §2, §3, §4, §5, §6

host cell proteins (HCP) = assay: Microtiter plate chromatography of resins: binding of host cell proteins; design: species or system CHO cell culture; conditions: fraction of injected undiluted host cell proteins bound
Protocol: Flowthrough from protein A chromatography (referred to as host cell proteins) was derived from the supernatant of antibody-producing CHO cell culture in serum-free medium. Coomassie brilliant blue dye reagent for Bradford assay was purchased from Thermo Scientific (Bonn/Germany).
as §1, §2, §3, §4, §6

Tocilizumab = assay: Microtiter plate chromatography of resins: binding and elution of Tocilizumab; conditions: fraction of injected protein bound; 0.5 mg/ml IgG in PBS pH 7.3
Protocol: as §1, §2, §3, §4, §5, §6

Bevacizumab [2] = assay: Microtiter plate chromatography of resins: binding and elution of Bevacizumab; conditions: fraction of bound Bevacizumab divided by fraction of bound HCP; truncated for values beyond 10
Protocol: as §1, §2, §3, §4, §5
(§7) The selectivity of resins was calculated as the fraction of bound Bevacizumab antibody BAb, divided by the fraction of bound host cell proteins BHCP.
as §6

Bevacizumab [3] = molecular target: T1, Bevacizumab (Homo sapiens, UniProt P01857); assay: as above; conditions: for Bevacizumab Bound: fraction of injected protein bound, 0.5 mg/ml IgG in PBS pH 7.3, ligand immobilized on SEPHAROSE 4 FF; for Bevacizumab Yield: mass eluted (glycine pH 2.5) / mass injected
T1 construct: 0.5 mg/ml IgG in PBS pH 7.3; ligand immobilized on SEPHAR; Bevacizumab Yield; other: mass eluted (glycine pH 2.5) / mass injected; kd (dissociation constant, Langmuir isotherm); other: Bevacizumab 0.05-5 mg/ml in PBS pH 7.3, 25° C., at least 3 h; qm (maximum capacity); other: mg Bevacizumab per ml of resin; Langmuir isotherm; t0; fused on or other part: Humanized anti-VEGF-A VH domain joined N-terminally to the IGHG1 constant region (engineered, no UniProt entry)
Protocol: as §1, §2, §3, §4, §5, §7, §6

SMILES	Palivizumab Bound (Palivizumab)	Cetuximab Bound (Cetuximab)	h-poly-IgG Bound [1]	HCP Bound (host cell proteins (HCP))	Tocilizumab Bound (Tocilizumab)	Selectivity (Bevacizumab [2])	Bevacizumab Bound (Bevacizumab [3])	Bevacizumab Yield (Bevacizumab [3])
Cc1csc(NC(=O)c2ccc3c(c2)ncn3CCCN)n1 [Ligand L15, 1-(3-Amino-1-propyl)benzimidazole-5-carboxylic acid N-(4-methylthiazol-2-yl) amide]	100%	100%	100%	39%	100%	2.6	100%	91%
NCCOCCOc1ccc(C(=O)Nc2nnc(-c3ccco3)s2)cc1 [Ligand L37, 4-(5-Amino-3-oxa-1-pentyloxy)benzoic acid N-[5-(2-furyl)-1,3,4-thiadiazol-2-yl] amide]	100%	100%	100%	25%	100%	4.0	100%	87%
CCSc1nnc(NC(=O)c2ccc3c(c2)ncn3CCCN)s1 [Ligand L12, 1-(3-Amino-1-propyl)benzimidazole-5-carboxylic acid N-(2-ethylthio-1,3,4-thiadiazol-5-yl) amide]	100%	100%	100%	40%	100%	2.5	100%	104%
NCCCn1cnc2cc(C(=O)Nc3nc(-c4ccccc4)ns3)ccc21 [Ligand L22, 1-(3-Amino-1-propyl)benzimidazole-5-carboxylic acid N-(3-phenyl-1,2,4-thiadiazol-5-yl) amide]	100%	100%	100%	30%	100%	3.3	100%	104%
NCCCn1cnc2cc(C(=O)Nc3nnc(-c4ccc5c(c4)OCO5)s3)ccc21 [Ligand L09, 1-(3-Amino-1-propyl)benzimidazole-5-carboxylic acid N-[2-(3,4-methylenedioxyphenyl)-1,3,4-thiadiazol-5-yl] amide]	100%	100%	100%	39%	100%	2.6	100%	97%
NCCCNc1ccc(C(=O)Nc2nnc(-c3ccco3)s2)cc1[N+](=O)[O-] [Ligand L18, 4-[(3-Amino-1-propyl)amino]-3-nitrobenzoic acid N-[5-(2-furyl)-1,3,4-thiadiazol-2-yl]amide]	100%	100%	100%	29%	100%	3.4	100%	102%
NCCCn1c(=O)c(=O)[nH]c2cc(C(=O)Nc3nnc(-c4ccco4)s3)ccc21 [Ligand L28, 1-(3-Amino-1-propyl)-2,3-dioxo-1,2,3,4-tetrahydroquinoxaline-6-carboxylic acid N-[5-(2-furyl)-1,3,4-thiadiazol-2-yl]amide]	58%	89%	63%	12%	98%	8.3	100%	95%
